Laboratory results as given in patent US9840532B2, “5′-substituted nucleoside compounds” (Eli Lilly and Company, priority 2015, dated 2017).

System: MDM4 and SmD1-me2S
Experiment: Mouse A375 Tumor Xenograft MDM4 and SmD1-me2S Western Blot Assay
Assay type: in vivo
Conditions: A-375, PO given QD or BID, tumors 4 hr after last dose, 4 days of dosing, read-out: dose achieving 50% effect (ED50)
Method: Grow A375 cells in medium (DMEM high glucose/10% Hi FBS) at 37° C. in an incubator (5% CO2) for 18-24 hr. Mix the cells with MATRIGEL® (1:1) and implant the cells (5×10^6/animal) subcutaneously into the rear flank of the mice (female nude mice, Harlan). The implanted tumor cells grow as solid tumors. Measure the tumor volume and body weight twice a week with a caliper. After tumor volume reaches approximately 200-250 mm^3 (about 20 days after implant), randomize the animals, and group them into compound treatment groups. Administer the test compounds (formulated in SWFI with 1% HEC/0.25% TWEEN® 80/0.05% Antifoam) by oral gavage. Test compound doses are in the range of 3 to 100 mg/kg. Sacrifice mice 4 hr after the last dose (4 days of dosing).
Mouse A375 Tumor Xenograft MDM4 and SmD1-me2S Western Blot Assay
For western blotting, homogenize the tumor tissues as performed above in 500 μL of kit XY lysis buffer including protease inhibitor cocktail complete Mini (Roche, cat. #: 11 836 170 001) [this cocktail contains […] Trypsin-Chymotrypsin Inhibitor (Sigma cat. # T9777); 10 μg/mL TPCK (Sigma cat. # T4376); 10 μg/mL Aprotinin (Sigma cat. # A1153); 60 mM Beta-Glycerophosphate disodium salt hydrate (Sigma cat. # G9891); 1% TRITON™ X-100 (Sigma cat. # T9284); 25 mM Tris pH ˜7.5 (INVITROGEN™ cat. #15567-027); 2.5 mM sodium pyrophosphate dibasic (Fluka cat. #71501); 300 mM […] (Mallinckrodt cat. #7581); 2 mM TAME (Sigma cat. # T4626); 15 mM pNPP (pNPP disodium salt hexahydrate, Sigma cat. #P4744); 5 mM benzamidine hydrochloride hydrate (Sigma cat. #B6506); 10 mM sodium fluoride (Sigma cat. #S-7920); 1 mM sodium metavanadate anhydrous (Sigma cat. #59088); […]. 1 mM DTT (Sigma cat. # D9779); 15 mM EDTA pH ˜8.0 (INVITROGEN™ cat. #15575020); 5 mM EGTA pH ˜8.0 (Sigma cat. #E3889); […] (Fisher/Axxora cat. # A350012m001); 0.25 mM Pefa Bloc (Sigma cat. #76307). Spin the protein lysates down at 8,000 rpm for 10 min and transfer supernatants to 1.5 mL tubes for sonication (amplitude 25% yield) for 15 seconds. […]

SMILES	ED50 [mg/kg]
Nc1ncnc2c1ccn2[C@@H]1O[C@H]([C@H](O)c2ccc(Cl)cc2)[C@@H](O)[C@H]1O [Example 1, (2R,3R,4S,5R)-2-(4-Aminopyrrolo[2,3-d]pyrimidin-7-yl)-5-[(R)-(4-chlorophenyl)-hydroxy-methyl]tetrahydrofuran-3,4-diol]	≤ 30
Nc1ncnc2c1ccn2[C@@H]1O[C@H]([C@H](O)c2ccccc2)[C@@H](O)[C@H]1O [Example 2, (2R,3R,4S,5R)-2-(4-Aminopyrrolo[2,3-d]pyrimidin-7-yl)-5[(R)-hydroxy(phenyl)methyl]tetrahydrofuran-3,4-diol]	≤ 30
C[C@@](O)(c1ccc(Cl)cc1)[C@H]1O[C@@H](n2ccc3c(N)ncnc32)[C@H](O)[C@@H]1O [Example 3, (2R,3R,4S,5S)-2-(4-Aminopyrrolo[2,3-d]pyrimidin-7-yl)-5-[(1R)-1-(4-chlorophenyl)-1-hydroxy-ethyl]tetrahydrofuran-3,4-diol]	≤ 30
